These results are taken from ChEMBL document CHEMBL4414585, “Inhibition Mechanisms of Indoleamine 2,3-Dioxygenase 1 (IDO1)” (J Med Chem, 2019).

Active and inactive are the calls of the source. No cut-off for these calls is given here.

Data set [1] has as its target T1, Indoleamine 2,3-dioxygenase 1 (Homo sapiens, UniProt P14902). Particulars: 20 uM.
Target sequence in this assay (P14902 whole entry, looked up): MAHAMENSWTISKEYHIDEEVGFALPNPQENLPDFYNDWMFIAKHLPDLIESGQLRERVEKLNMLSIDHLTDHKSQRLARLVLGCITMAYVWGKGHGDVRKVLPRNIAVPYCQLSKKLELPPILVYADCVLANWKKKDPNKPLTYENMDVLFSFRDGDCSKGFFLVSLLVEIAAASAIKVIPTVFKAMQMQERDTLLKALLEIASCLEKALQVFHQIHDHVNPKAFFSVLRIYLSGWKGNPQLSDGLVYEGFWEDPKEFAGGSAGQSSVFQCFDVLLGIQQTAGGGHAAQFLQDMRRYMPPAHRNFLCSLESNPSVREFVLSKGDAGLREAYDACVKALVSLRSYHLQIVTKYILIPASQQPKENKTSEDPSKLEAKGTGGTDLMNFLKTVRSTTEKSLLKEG
Description: Inhibition of full-length human IDO1 expressed in Escherichia coli Rosetta (DE3) assessed as reduction in kynurenine production at 20 uM pre-incubated for 120 mins before L-Trp addition by HPLC analysis relative to control
For data set [2], the target named is T1, Indoleamine 2,3-dioxygenase 1. Particulars: 40 uM.
Target sequence in this assay (P14902 whole entry, looked up): as above
Description: Inhibition of full-length human IDO1 expressed in Escherichia coli Rosetta (DE3) assessed as reduction in kynurenine production at 40 uM pre-incubated for 120 mins before L-Trp addition by HPLC analysis relative to control
Data set [3] has the same target. Particulars: 20 to 40 uM.
Target sequence in this assay (P14902 whole entry, looked up): as above
Description: Inhibition of full-length human IDO1 expressed in Escherichia coli Rosetta (DE3) assessed as reduction in kynurenine production at 20 to 40 uM pre-incubated for 120 mins before L-Trp addition in presence of ascorbate and MB reductants by HPLC analysis relative to control
Data set [4] shares this target. Particulars: 20 to 40 uM. This is another data set of the same source.
Target sequence in this assay (P14902 whole entry, looked up): as above
Description: Inhibition of full-length human IDO1 expressed in Escherichia coli Rosetta (DE3) assessed as reduction in kynurenine production at 20 to 40 uM pre-incubated for 120 mins before jump dilution with incubation medium containing L-Trp and further incubated for 20 mins by HPLC analysis
Data set [5] has the same target. Particulars: 20 to 40 uM. The source holds these as a separate data set.
Target sequence in this assay (P14902 whole entry, looked up): as above
Description: Inhibition of full-length human IDO1 expressed in Escherichia coli Rosetta (DE3) assessed as reduction in kynurenine production at 20 to 40 uM pre-incubated for 120 mins before L-Trp addition in presence of ascorbate and MB reductants and catalase by HPLC analysis relative to control
The target is the same in data set [6]. Kind of data set: Inhibition of full-length human IDO1 expressed in Escherichia coli Rosetta (DE3) assessed as reduction in kynurenine production at 0.5 to 2.5 uM pre-incubated for 120 mins before jump dilution with incubation medium containing L-Trp and further incubated for 20 mins by HPLC analysis.
Target sequence in this assay (P14902 whole entry, looked up): as above
The target is the same in data set [7]. As to the kind of experiment: Binding affinity to human IDO1 expressed in Escherichia coli Rosetta (DE3) assessed induction of shift in Soret peak in phosphate buffer at 200 uM in presence of ascorbate and MB reductants measured over 4 hrs by UV-vis absorption spectroscopy.
Data set [8] shares this target. Kind of data set: Inhibition of full-length human IDO1 expressed in Escherichia coli Rosetta (DE3) assessed as reduction in kynurenine production at 0.5 to 2.5 uM pre-incubated for 120 mins in presence of ascorbate and MB reductants and catalase before jump dilution with incubation medium containing L-Trp and further incubated for 20 mins by HPLC analysis.
The target is the same in data set [9]. As to the kind of experiment: Inhibition of full-length human IDO1 expressed in Escherichia coli Rosetta (DE3) assessed as reduction in kynurenine production at 0.5 to 2.5 uM pre-incubated for 120 mins in presence of ascorbate and MB reductants before jump dilution with incubation medium containing L-Trp and further incubated for 20 mins by HPLC analysis.
Data set [10] has the same target. Kind of data set: Binding affinity to human IDO1 expressed in Escherichia coli Rosetta (DE3) assessed induction of shift in Soret peak in phosphate buffer at 200 uM measured over 4 hrs by UV-vis absorption spectroscopy.
For data set [11] the target is unchanged. Kind of data set: Inhibition of IDO1 in IFNgamma-induced human HeLa cells incubated for 5 hrs by Ehrlich's reagent based assay. The class given is cell-based.
Target sequence in this assay (P14902 whole entry): as the sequence (P14902 whole entry, looked up) above
Data set [12] has the same target. Kind of data set: Inhibition of full-length human IDO1 expressed in Escherichia coli Rosetta (DE3) assessed as reduction in kynurenine production at 0.5 to 1 uM pre-incubated for 120 mins in presence of ascorbate and MB reductants and catalase before jump dilution with incubation medium containing L-Trp and further incubated for 20 mins by HPLC analysis.
For data set [13] the target is unchanged. As to the kind of experiment: Inhibition of full-length human IDO1 expressed in Escherichia coli Rosetta (DE3) assessed as reduction in kynurenine production at 0.5 to 1 uM pre-incubated for 120 mins in presence of ascorbate and MB reductants before jump dilution with incubation medium containing L-Trp and further incubated for 20 mins by HPLC analysis.

Data set [14] has the same target. As to the kind of experiment: Inhibition of full-length human IDO1 expressed in Escherichia coli Rosetta (DE3) assessed as reduction in kynurenine production at 0.5 to 1 uM pre-incubated for 120 mins before jump dilution with incubation medium containing L-Trp and further incubated for 20 mins by HPLC analysis.
For data set [15] the target is unchanged. As to the kind of experiment: Inhibition of purified human recombinant IDO1 expressed in Escherichia coli assessed as reduction in kynurenine production incubated up to 90 mins using L-Trp substrate by Ehrlich's reagent based spectrophotometry.
Target sequence in this assay (P14902 whole entry): as the sequence (P14902 whole entry, looked up) above
The target is the same in data set [16]. Kind of data set: Inhibition of full-length human IDO1 expressed in Escherichia coli Rosetta (DE3) assessed as enzyme activity by measuring kynurenine production at 40 to 200 uM pre-incubated for 120 mins in presence of ascorbate and MB reductants before jump dilution with incubation medium containing L-Trp and further incubated for 20 mins by HPLC analysis. On the set-up: scale not given: the % may be the effect or the level left.

The target is the same in data set [17]. As to the kind of experiment: Inhibition of IDO1 (unknown origin) by enzymatic assay.
Target sequence in this assay (P14902 whole entry): as the sequence (P14902 whole entry, looked up) above
Data set [18] shares this target. As to the kind of experiment: Selectivity ratio of IC50 for inhibition of IDO1 (unknown origin) by enzymatic assay to IC50 for inhibition of IDO1 (unknown origin) by cell based assay.
Data set [19] shares this target. Kind of data set: Inhibition of full-length human IDO1 expressed in Escherichia coli Rosetta (DE3) assessed as reduction in kynurenine production at 40 to 200 uM pre-incubated for 120 mins before jump dilution with incubation medium containing L-Trp and further incubated for 20 mins by HPLC analysis.
Data set [20] has the same target. As to the kind of experiment: Binding affinity to human IDO1 expressed in Escherichia coli Rosetta (DE3) assessed induction of shift in Soret peak in phosphate buffer at 200 uM in presence of ascorbate and MB reductants measured over 60 mins by UV-vis absorption spectroscopy (reference value: […] nm).
Data set [21] shares this target. As to the kind of experiment: Inhibition of IDO1 (unknown origin) by cell based assay.
Target sequence in this assay (P14902 whole entry): as the sequence (P14902 whole entry, looked up) above
Data set [22] has the same target. As to the kind of experiment: Binding affinity to human IDO1 expressed in Escherichia coli Rosetta (DE3) assessed complete protection against heme degradation at 200 uM in presence of ascorbate and MB reductants measured at 45 mins by UV-vis absorption spectroscopy.
Data set [23] has the same target. As to the kind of experiment: Inhibition of full-length human IDO1 expressed in Escherichia coli Rosetta (DE3) assessed as enzyme activity by measuring kynurenine production at 40 to 200 uM pre-incubated for 120 mins in presence of ascorbate and MB reductants and catalase before jump dilution with incubation medium containing L-Trp and further incubated for 20 mins by HPLC analysis.

Data set [24] has the same target. As to the kind of experiment: Inhibition of full-length human IDO1 expressed in Escherichia coli Rosetta (DE3) using L-Trp substrate by HPLC analysis.
Target sequence in this assay (P14902 whole entry): as the sequence (P14902 whole entry, looked up) above
The nature of data set [25]: Dissociation constant, pKa of the compound. The class given is physicochemical.

By inhibition is commonly meant the percentage by which the read-out fell short of the control. For `Nc1nonc1/C(=N/O)Nc1ccc(F)c(Cl)c1`, the inhibition in data set [1] was 82%; in data set [2], 65%; in data set [3] it was 100%; in [5], 100%. Further, the inhibition result in [4] is “Active”.

On to `CC1=CC(=O)c2ccccc2C1=O`, for which the inhibition entry in data set [6] and in data set [9] was “Active” throughout. For the same compound, the result in data set [7] and in data set [10] was inactive. In [8], the inhibition entry is “inactive”.

What is called IC50 is the midpoint of a concentration-inhibition curve. For the compound `CC1(C)CCC2=C(O1)c1ccccc1C(=O)C2=O` [LAPACHONE], the IC50 in data set [11] was 1000 nM; in data set [15] it was 440 nM. Further, the inhibition result in [12] is “inactive”. Also, the outcome in data set [7] and in [10] was inactive. The inhibition result in data set [13] and in [14] was “Active” in each case.

As to `Clc1ccc(Nc2cn[nH]n2)cc1`, the results for the Activity in data set [16] and in data set [20] were 0% and 425 nm, respectively. The figures for the IC50 in data set [17], in data set [21] and in data set [24] were 11.3 µM, 23 nM and 70 µM, respectively. The Ratio IC50 in [18] turned out to be 500. Besides, the inhibition entry in data set [19] is “Active”. Besides, the result in data set [22] was inactive. Moreover, in data set [23], the inhibition entry was “inactive”.

In general, pKa refers to the negative logarithm of the acid dissociation constant. `Oc1ccc(Cl)cc1-c1c[nH]nn1`: in data set [25], the pKa is 8.3.
